This note sets out measurements from patent US20240043470A1, “MACROCYCLIC COMPOUNDS AS PROTEASOME INHIBITORS” (CORNELL UNIVERSITY, priority 2017, published 2024).

In general, IC50 refers to the concentration that inhibits the measured activity by half.

The target of one test is β5i of hu i-20S (Homo sapiens (Human), UniProt P20618+P28062). Briefly: IC50 determination against β5i of human immunoproteasome (Ac-ANW-AMC hydrolysis).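 On all read-outs here: enzyme activity taken as the initial reaction velocity per well, with SDS added to activate the proteasome.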 In kind it is biochemical. The conditions noted are these: for IC50: β5i, 0.4 nM i-20S, 15 μM Ac-ANW-AMC.
The target in a further test is β5c of hu c-20S (Homo sapiens (Human), UniProt P20618+P28074). Kind of test: IC50 determination against β5c of human constitutive proteasome (suc-LLVY-AMC hydrolysis).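 Further: IC50 obtained by fitting initial reaction velocities to a dose-dependent inhibition model, with SDS present as proteasome activator.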 It counts as biochemical. The following applies: 0.2 nM c-20S, 25 μM suc-LLVY-AMC.

Some results are limits rather than exact numbers.

In the case of `O=C1CCc2cccc(c2)Oc2ccc(cc2)C[C@@H](C(=O)NCc2cccc3ccccc23)NC(=O)[C@H](CC(=O)N2CCCC2)N1` (single isomer, unassigned) [Compound 2-03-A, N-(Naphthalen-1-ylmethyl)-7,10-dioxo-8-(2-oxo-2-(pyrrolidin-1-yl)ethyl)-2-oxa-6,9-diaza-1(1,3),3(1,4)-dibenzenacyclododecaphane-5-carboxamide], the IC50 turned out to be 10.1 µM against β5i of hu i-20S and 18.5 µM on β5c of hu c-20S.

In the case of `C[C@H]1Cc2cccc(c2)OCCCC[C@@H](C(=O)NC2CCCC2)NC(=O)[C@H](CCN2CCOCC2)NC1=O` (single isomer, unassigned) [Compound 3-37], the IC50 against β5i of hu i-20S was over 100 µM; at β5c of hu c-20S, 56.7 µM.

On to `C[C@@H]1Cc2cccc(c2)OCCCC[C@@H](C(=O)NC2CCCC2)NC(=O)[C@H](CCN2CCOCC2)NC1=O` (single isomer, unassigned) [Compound 3-38], for which the IC50 against β5i of hu i-20S is over 100 µM; on β5c of hu c-20S, 21.5 µM.

In the case of `O=C1CCc2cccc(c2)OCCCC[C@@H](C(=O)NC2CCCC2)NC(=O)[C@H](CC(=O)N2CCCC2C2CC2)N1` (single isomer, unassigned) [Compound 3-45-A], the IC50 on β5i of hu i-20S is over 100 µM; against β5c of hu c-20S it was 12.3 µM.

As to `O=C1CCc2cccc(c2)OCCCC[C@@H](C(=O)NC2CCCC2)NC(=O)[C@H](CC(=O)N2CCCC2C2CC2)N1` (single isomer, unassigned) [Compound 3-45-B], the IC50 is over 100 µM against β5i of hu i-20S and 3.6 µM against β5c of hu c-20S.

In the case of `O=C1CCc2cccc(c2)OCCCC[C@@H](C(=O)NCc2ccccc2F)NC(=O)[C@H](CC(=O)N2CCCC2C2CC2)N1` (single isomer, unassigned) [Compound 3-46-A], the IC50 worked out at 0.068 µM at β5i of hu i-20S and 0.0723 µM on β5c of hu c-20S.

For `O=C1CCc2cccc(c2)OCCCC[C@@H](C(=O)NCc2ccccc2F)NC(=O)[C@H](CC(=O)N2CCCC2C2CC2)N1` (single isomer, unassigned) [Compound 3-46-B], the IC50 against β5i of hu i-20S was found to be 0.312 µM; against β5c of hu c-20S, 1.35 µM.

As for `O=C1N[C@@H](CC(=O)N2CCCC2)C(=O)N[C@H](C(=O)NCc2cccc3ccccc23)CCCCCCCCCC1Cc1ccccc1` (stereo in doubt) [Compound 4-04, (2S,5S,15S)-15-Benzyl-N-(naphthalen-1-ylmethyl)-3,16-dioxo-2-(2-oxo-2-(pyrrolidin-1-yl)ethyl)-1,4-diazacyclohexadecane-5-carboxamide], the IC50 against β5i of hu i-20S was 61.3 µM.

For the compound `Cn1cc(CNC(=O)[C@@H]2Cc3cccc(c3)Oc3cccc(c3)C[C@H](NS(C)(=O)=O)C(=O)N[C@@H](CCc3ccccc3)C(=O)N2)cn1` [Compound 1-04, (5S,8S,11S)—N-((1-Methyl-1H-pyrazol-4-yl)methyl)-11-(methylsulfonamido)-7,10-dioxo-8-phenethyl-2-oxa-6,9-diaza-1,3(1,3)-dibenzenacyclododecaphane-5-carboxamide], the IC50 against β5i of hu i-20S was 7.22 µM; against β5c of hu c-20S, over 100 µM.

For `Cn1cc(CNC(=O)[C@@H]2Cc3cccc(c3)Oc3cccc(c3)C[C@H](NC(=O)CO)C(=O)N[C@@H](CCc3ccccc3)C(=O)N2)cn1` [Compound 1-05], the IC50 at β5i of hu i-20S is 14.8 µM; against β5c of hu c-20S, over 100 µM.

Consider `CCN(CC)[C@H]1Cc2cccc(c2)Oc2cccc(c2)C[C@@H](C(=O)NCc2ccccc2)NC(=O)[C@H](CCc2ccccc2)NC1=O` [Compound 1-16], for which the IC50 against β5i of hu i-20S stood at 100 µM; against β5c of hu c-20S, 22.9 µM.

With `O=C(NCc1ccccc1)[C@@H]1Cc2cccc(c2)Oc2cccc(c2)C[C@H](N2CCCC2)C(=O)N[C@@H](CCc2ccccc2)C(=O)N1` [Compound 1-17], the IC50 was determined as 6.6 µM against β5i of hu i-20S and 42.5 µM against β5c of hu c-20S.

As for `CC(C)(C)NC(=O)[C@@H]1Cc2cccc(c2)Oc2cccc(c2)C[C@H](NS(C)(=O)=O)C(=O)N[C@@H](CCc2ccccc2)C(=O)N1` [Compound 1-37], the results for the IC50 against β5i of hu i-20S and on β5c of hu c-20S were over 100 µM and 3.6 µM, respectively.

With `CC(C)(C)OC(=O)N[C@H]1Cc2cccc(c2)Oc2cccc(c2)C[C@@H](C(=O)OCc2ccccc2)NC(=O)[C@H](CCc2ccccc2)NC1=O` [Compound 1-50, Benzyl-(S,8S,11S)-11-((tert-butoxycarbonyl)amino)-7,10-dioxo-8-phenethyl-2-oxa-6,9-diaza-1,3(1,3)-dibenzenacyclododecaphane-5-carboxylate], the IC50 against β5i of hu i-20S and at β5c of hu c-20S was over 100 µM throughout.

Take `CN1CCN(C(=O)[C@@H]2Cc3cccc(c3)Oc3cccc(c3)C[C@H](NC(=O)c3ccccn3)C(=O)N[C@@H](CCc3ccccc3)C(=O)N2)CC1` [Compound 1-52]: the results for the IC50 against β5i of hu i-20S and against β5c of hu c-20S were 33.9 µM and 30.7 µM, respectively.

For `O=C(N[C@H]1Cc2cccc(c2)Oc2cccc(c2)C[C@@H](C(=O)NCC(F)(F)F)NC(=O)[C@H](CCc2ccccc2)NC1=O)C1CC1` [Compound 1-54, (5S,8S,11S)-11-(Cyclopropanecarboxamido)-7,10-dioxo-8-phenethyl-N-(2,2,2-trifluoroethyl)-2-oxa-6,9-diaza-1,3(1,3)-dibenzenacyclododecaphane-5-carboxamide], the IC50 against β5i of hu i-20S and against β5c of hu c-20S was over 100 µM in each case.

As to `O=C(CC(F)(F)F)N[C@H]1Cc2cccc(c2)Oc2cccc(c2)C[C@@H](C(=O)NCC(F)(F)F)NC(=O)[C@H](CCc2ccccc2)NC1=O` [Compound 1-55, (5S,8S,11S)-7,10-Dioxo-8-phenethyl-N-(2,2,2-trifluoroethyl)-11-(3,3,3-trifluoropropanamido)-2-oxa-6,9-diaza-1,3(1,3)-dibenzenacyclododecaphane-5-carboxamide], the IC50 on β5i of hu i-20S and against β5c of hu c-20S was over 100 µM each time.

Turning to `CN(C)[C@H]1Cc2cccc(c2)Oc2cccc(c2)C[C@@H](C(=O)NCC(F)(F)F)NC(=O)[C@H](CCc2ccccc2)NC1=O` [Compound 1-57, (5S,8S,11S)-11-(Dimethylamino)-7,10-dioxo-8-phenethyl-N-(2,2,2-trifluoroethyl)-2-oxa-6,9-diaza-1,3(1,3)-dibenzenacyclododecaphane-5-carboxamide], the IC50 worked out at 18.7 µM at β5i of hu i-20S and 1.1 µM at β5c of hu c-20S.

In the case of `CN1C(=O)[C@@H](N2CCCC2=O)Cc2cccc(c2)Oc2cccc(c2)C[C@@H](C(=O)NCC(F)(F)F)NC(=O)[C@@H]1CCc1ccccc1` [Compound 1-64], the IC50 against β5i of hu i-20S was 2.72 µM; on β5c of hu c-20S, over 100 µM.

As to `Cc1ccc(CNC(=O)[C@@H]2Cc3cccc(c3)Oc3cccc(c3)C[C@H](NC(=O)OC(C)(C)C)C(=O)N[C@@H](CCc3ccccc3)C(=O)N2)cc1` [Compound 1-68, tert-Butyl-((5S,8S,11S)-5-((4-methylbenzyl)carbamoyl)-7,10-dioxo-8-phenethyl-2-oxa-6,9-diaza-1,3(1,3)-dibenzenacyclododecaphane-11-yl)carbamate], the IC50 is over 100 µM against β5i of hu i-20S and 17.9 µM against β5c of hu c-20S.

`CN1C(=O)[C@H](CCN2CCOCC2)NC(=O)[C@@H](N2CCCC2=O)Cc2cccc(c2)Oc2cccc(c2)C[C@H]1C(=O)NCC(F)(F)F` [Compound 1-86, (5S,8S,11S)-6-Methyl-8-(2-morpholinoethyl)-7,10-dioxo-11-(2-oxopyrrolidin-1-yl)-N-(2,2,2-trifluoroethyl)-2-oxa-6,9-diaza-1,3(1,3)-dibenzenacyclododecaphane-5-carboxamide] displayed an IC50 at β5i of hu i-20S of 61 µM.

In the case of `O=C(NC1CCCC1)[C@@H]1Cc2cccc(c2)Oc2cccc(c2)C[C@H](N2CCCS2(=O)=O)C(=O)N[C@@H](CCN2CCOCC2)C(=O)N1` [Compound 1-88, (5S,8S,11S)—N-Cyclopentyl-11-(1,1-dioxidoisothiazolidin-2-yl)-8-(2-morpholinoethyl)-7,10-dioxo-2-oxa-6,9-diaza-1,3(1,3)-dibenzenacyclododecaphane-5-carboxamide], the “% @ […], hu i-20S” value at β5i of hu i-20S (compound at […]) amounted to 15% @ 33.3 μM.

Take `O=C1CCc2cccc(c2)Oc2cccc(c2)C[C@@H](C(=O)NC2CCCC2)NC(=O)[C@H](CCN2CCOCC2)N1` [Compound 1-89, (5S,8S)—N-Cyclopentyl-8-(2-morpholinoethyl)-7,10-dioxo-2-oxa-6,9-diaza-1,3(1,3)-dibenzenacyclododecaphane-5-carboxamide]: on β5i of hu i-20S, the IC50 is over 100 µM.

In the case of `COC1(CNC(=O)[C@@H]2Cc3cccc(c3)Oc3cccc(c3)CCC(=O)N[C@@H](CCN3CCOCC3)C(=O)N2)CC1` [Compound 1-90], the IC50 at β5i of hu i-20S was over 100 µM; against β5c of hu c-20S, 68.1 µM.

Consider `O=C1CCc2cccc(c2)Oc2ccc(cc2)C[C@@H](C(=O)NCc2ccccc2F)NC(=O)[C@H](CC(=O)N2CCCC2)N1` [Compound 2-01-B, (5S,8S)—N-(2-Fluorobenzyl)-7,10-dioxo-8-(2-oxo-2-(pyrrolidin-1-yl)ethyl)-2-oxa-6,9-diaza-1(1,3),3(1,4)-dibenzenacyclododecaphane-5-carboxamide], for which the figures for the IC50 against β5i of hu i-20S and on β5c of hu c-20S were 0.845 µM and 75.4 µM, respectively.

With `O=C1CCc2cccc(c2)Oc2ccc(cc2)C[C@@H](C(=O)NCc2ccccc2F)NC(=O)[C@H](CC(=O)N2CCC[C@@H]2c2ccccc2)N1` [Compound 2-02-B, (5S,8S)—N-(2-Fluorobenzyl)-7,10-dioxo-8-(2-oxo-2-((R)-2-phenylpyrrolidin-1-yl)ethyl)-2-oxa-6,9-diaza-1(1,3),3(1,4)-dibenzenacyclododecaphane-5-carboxamide], the IC50 against β5i of hu i-20S is 6.75 µM; against β5c of hu c-20S, over 100 µM.

Turning to `O=C1N[C@H](CO)CCCCOc2cccc(c2)C[C@H](N2CCCC2=O)C(=O)N[C@H]1CCc1ccccc1` [Compound 3-06, (7S,10S,13S)-7-(Hydroxymethyl)-13-(2-oxopyrrolidin-1-yl)-10-phenethyl-2-oxa-8,11-diaza-1(1,3)-benzenacyclotetradecaphane-9,12-dione], the IC50 against β5i of hu i-20S is 68 µM.

`CC1(CNC(=O)[C@@H]2CCCCOc3cccc(c3)CCC(=O)N[C@@H](CCN3CCOCC3)C(=O)N2)CC1` [Compound 3-27] showed an IC50 against β5c of hu c-20S of 34.6 µM.

`O=C(NC[C@H]1CCCO1)[C@@H]1CCCCOc2cccc(c2)C[C@H](N2CCCC2=O)C(=O)N[C@@H](CCc2ccc(F)cc2)C(=O)N1` [Compound 3-30] displayed an IC50 against β5c of hu c-20S of 85.3 µM.

Consider `CN1C(=O)[C@H](CCc2ccccc2)NC(=O)[C@@H](N2CCCC2=O)Cc2cccc(c2)OCCCC[C@H]1C(=O)NCC(F)(F)F` [Compound 3-33], for which the IC50 against β5c of hu c-20S was 25.8 µM.
